Among the data in patent US12415794B2 (Edgewise Therapeutics, Inc., priority 2018, dated 2025) are IC50 values, retold here.

The target in assay [1] is skeletal myofibrils (myosin ATPase). Nature of the assay: Skeletal Myofibril ATPase Assay. In kind it is biochemical. In short, it runs like this: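 Skeletal myofibril ATPase measured by PK-LDH coupled NADH depletion, absorbance 340 nm read every 1.5-2 min over 45 min. Max−min rate normalized to 1% DMSO vehicle as 100%; IC50 from four-parameter logistic fit with bottom ≥0. Cardiac myofibrils used as counter-screen.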

The target of assay [2] is T1, cardiac myofibrils (myosin ATPase).
T1 construct: frozen myofibril pellets obtained from cardiac tissue; from tissue
T1 sequence (P12883 whole entry): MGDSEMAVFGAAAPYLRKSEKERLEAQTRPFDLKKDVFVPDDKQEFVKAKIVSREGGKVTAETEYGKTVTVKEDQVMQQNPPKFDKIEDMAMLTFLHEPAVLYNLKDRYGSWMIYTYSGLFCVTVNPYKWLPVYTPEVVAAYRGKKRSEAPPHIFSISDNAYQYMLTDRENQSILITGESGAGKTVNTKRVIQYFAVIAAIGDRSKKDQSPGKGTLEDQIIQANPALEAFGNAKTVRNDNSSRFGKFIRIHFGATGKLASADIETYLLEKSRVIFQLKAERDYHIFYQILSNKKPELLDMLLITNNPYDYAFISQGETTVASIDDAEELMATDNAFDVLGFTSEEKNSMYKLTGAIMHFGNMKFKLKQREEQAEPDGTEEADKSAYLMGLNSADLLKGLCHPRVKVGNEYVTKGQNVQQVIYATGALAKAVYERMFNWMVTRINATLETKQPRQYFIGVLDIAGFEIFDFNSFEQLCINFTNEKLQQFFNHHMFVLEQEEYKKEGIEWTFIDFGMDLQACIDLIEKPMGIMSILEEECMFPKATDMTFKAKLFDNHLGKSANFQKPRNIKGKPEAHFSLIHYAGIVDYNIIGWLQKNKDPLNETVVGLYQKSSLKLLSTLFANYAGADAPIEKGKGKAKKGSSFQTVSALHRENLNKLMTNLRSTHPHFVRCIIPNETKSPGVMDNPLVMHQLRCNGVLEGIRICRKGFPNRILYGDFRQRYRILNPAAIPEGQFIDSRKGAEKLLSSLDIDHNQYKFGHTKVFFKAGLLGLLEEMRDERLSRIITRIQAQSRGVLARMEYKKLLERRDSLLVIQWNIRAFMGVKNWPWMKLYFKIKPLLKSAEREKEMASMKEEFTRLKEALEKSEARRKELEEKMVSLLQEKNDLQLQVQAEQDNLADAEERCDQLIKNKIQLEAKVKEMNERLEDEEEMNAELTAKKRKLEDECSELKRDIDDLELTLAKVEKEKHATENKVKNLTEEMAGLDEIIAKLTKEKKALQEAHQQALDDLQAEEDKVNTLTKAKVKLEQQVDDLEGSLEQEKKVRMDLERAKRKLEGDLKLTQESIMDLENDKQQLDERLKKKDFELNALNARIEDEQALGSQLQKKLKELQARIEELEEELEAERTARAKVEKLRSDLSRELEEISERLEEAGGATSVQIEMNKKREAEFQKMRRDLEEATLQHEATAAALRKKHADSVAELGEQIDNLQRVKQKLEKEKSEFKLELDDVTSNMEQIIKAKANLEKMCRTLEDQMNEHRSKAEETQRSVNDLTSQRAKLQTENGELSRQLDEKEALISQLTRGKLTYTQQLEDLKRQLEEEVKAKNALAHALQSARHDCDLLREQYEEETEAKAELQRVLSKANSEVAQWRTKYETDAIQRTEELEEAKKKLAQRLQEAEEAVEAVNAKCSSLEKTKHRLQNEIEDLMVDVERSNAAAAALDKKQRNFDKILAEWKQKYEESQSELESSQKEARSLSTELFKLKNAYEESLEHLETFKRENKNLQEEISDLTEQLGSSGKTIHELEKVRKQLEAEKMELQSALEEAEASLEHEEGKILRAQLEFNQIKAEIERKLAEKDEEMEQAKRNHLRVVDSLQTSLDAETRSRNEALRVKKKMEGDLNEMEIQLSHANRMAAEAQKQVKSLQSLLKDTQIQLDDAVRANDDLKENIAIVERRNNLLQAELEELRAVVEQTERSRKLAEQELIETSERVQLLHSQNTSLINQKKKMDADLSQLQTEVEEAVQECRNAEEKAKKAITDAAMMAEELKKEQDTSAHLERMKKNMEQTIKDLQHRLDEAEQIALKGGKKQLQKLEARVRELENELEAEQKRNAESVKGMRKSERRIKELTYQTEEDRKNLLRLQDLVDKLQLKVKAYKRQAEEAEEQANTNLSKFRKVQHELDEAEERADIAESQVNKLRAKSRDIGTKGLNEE
T1 sequence (P08590 whole entry partner): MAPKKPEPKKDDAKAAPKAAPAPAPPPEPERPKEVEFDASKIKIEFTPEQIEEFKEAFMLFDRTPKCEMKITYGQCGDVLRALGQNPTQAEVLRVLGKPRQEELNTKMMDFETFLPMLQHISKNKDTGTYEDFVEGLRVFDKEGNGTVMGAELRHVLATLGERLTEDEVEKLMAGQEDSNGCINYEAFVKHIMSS
T1 sequence (P10916 whole entry partner): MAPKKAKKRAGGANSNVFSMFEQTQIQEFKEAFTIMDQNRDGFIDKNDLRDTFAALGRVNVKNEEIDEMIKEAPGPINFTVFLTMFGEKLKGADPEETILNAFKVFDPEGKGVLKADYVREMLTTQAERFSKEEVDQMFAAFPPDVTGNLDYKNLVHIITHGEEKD
The assay can be described thus: Cardiac Myofibril ATPase Assay (counter screen). In kind it is biochemical. The following applies: myofibrils 1.0 mg/mL, KCl omitted. The method, boiled down: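 Frozen cardiac myofibrils at 1.0 mg/mL final, KCl omitted, in a PK-LDH coupled ATPase assay; ADP production tracked as NADH loss by absorbance at 340 nm. Inhibition taken as reduced rate relative to vehicle controls, with IC50 derived.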

A value given as a limit tells only on which side of the number the result lay.

Broadly, the IC50 is the midpoint of a concentration-inhibition curve. Lower therefore signals greater potency in that assay. In the case of `COc1ccc(-c2ccc(=O)n(CC(=O)NCCc3ccccc3)n2)c(F)c1` [IIIb-9, 2-(3-(2-fluoro-4-methoxyphenyl)-6-oxopyridazin-1(6H)-yl)-N-phenethylacetamide], the figures for the concentration for half-maximal inhibition (IC50) in assay [1] (Table 4C) and in assay [2] (Table 5C) were less than 10 µM and greater than 100 µM, respectively.
On to `CCNC(=O)Cn1nc(-c2ccc(C3CC3)nc2)ccc1=O` [Compound I-12, 2-(3-(6-cyclopropylpyridin-3-yl)-6-oxopyridazin-1(6H)-yl)-N-ethylacetamide], for which the IC50 in assay [1] (Table 4A) was 10 to 100 µM; in assay [2] (Table 5A), greater than 100 µM.
`COc1ccc(-c2ccc(=O)n(CC(=O)NCc3ccc(Cl)cc3Cl)n2)cc1` [IIIa-12, N-(2,4-dichlorobenzyl)-2-(3-(4-methoxyphenyl)-6-oxopyridazin-1(6H)-yl)acetamide]: the IC50 is less than 10 µM in assay [1] (Table 4C) and greater than 100 µM in assay [2] (Table 5C).
The like results for `CC(C)OCCCNC(=O)Cn1nc(-c2ccc(Cl)cc2)ccc1=O` [IIIc-33, 2-(3-(4-chlorophenyl)-6-oxopyridazin-1(6H)-yl)-N-(3-isopropoxypropyl)acetamide] were, in that order, 10 to 100 µM and greater than 100 µM.
As to `CCNC(=O)Cn1nc(-c2ccc(SC)nc2)ccc1=O` [Compound I-63, N-ethyl-2-(3-(6-(methylthio)pyridin-3-yl)-6-oxopyridazin-1(6H)-yl)acetamide], the values for the concentration for half-maximal inhibition (IC50) in assay [1] (Table 4A) and in assay [2] (Table 5A) were less than 10 µM and greater than 100 µM, respectively.
Take `COc1ccc(-c2ccc(=O)n(CC(=O)NC3(c4ccccc4Cl)CC3)n2)cc1` [IIIa-20, N-(1-(2-chlorophenyl)cyclopropyl)-2-(3-(4-methoxyphenyl)-6-oxopyridazin-1(6H)-yl)acetamide]: the IC50 in assay [1] (Table 4C) was 10 to 100 µM; in assay [2] (Table 5C), greater than 100 µM.
Turning to `COc1ccc(-c2ccc(=O)n(CC(=O)NC(C)C)n2)cc1` [IIIb-18, N-isopropyl-2-(3-(4-methoxyphenyl)-6-oxopyridazin-1(6H)-yl)acetamide], the concentration for half-maximal inhibition (IC50) was 10 to 100 µM in assay [1] (Table 4C) and greater than 100 µM in assay [2] (Table 5C).
For `COc1ccc(-c2ccc(=O)n(CC(=O)Nc3ccc(C(C)C)cc3)n2)cc1` [IIIb-56, N-(4-isopropylphenyl)-2-(3-(4-methoxyphenyl)-6-oxopyridazin-1(6H)-yl)acetamide], the IC50 in assay [1] (Table 4C) and in assay [2] (Table 5C) was greater than 100 µM throughout.
On to `COc1ccc(-c2ccc(=O)n(CC(=O)NCc3ccccc3F)n2)cc1` [IIIb-38, N-(2-fluorobenzyl)-2-(3-(4-methoxyphenyl)-6-oxopyridazin-1(6H)-yl)acetamide], for which the IC50 in assay [1] (Table 4C) and in assay [2] (Table 5C) was greater than 100 µM throughout.
Consider `COc1ccccc1NC(=O)Cn1nc(-c2ccc(Cl)cc2)ccc1=O` [IIIc-23, 2-(3-(4-chlorophenyl)-6-oxopyridazin-1(6H)-yl)-N-(2-methoxyphenyl)acetamide], for which the values for the half-maximal inhibitory concentration (IC50) in assay [1] (Table 4C) and in assay [2] (Table 5C) were less than 10 µM and greater than 100 µM, respectively.
On to `CCNC(=O)Cn1nc(-c2ccc(OC(C)(F)F)cc2)ccc1=O` [II-1, 2-(3-(4-(1,1-difluoroethoxy)phenyl)-6-oxopyridazin-1(6H)-yl)-N-ethylacetamide], for which the values for the concentration for half-maximal inhibition (IC50) in assay [1] (Table 4B) and in assay [2] (Table 5B) were less than 10 µM and 10 to 100 µM, respectively.
As to `CCNC(=O)Cn1nc(-c2ccc(NC3CCC3)nc2)ccc1=O` [Compound I-62, 2-(3-(6-(cyclobutylamino)pyridin-3-yl)-6-oxopyridazin-1(6H)-yl)-N-ethylacetamide], the IC50 in assay [1] (Table 4A) was less than 10 µM; in assay [2] (Table 5A), greater than 100 µM.
For the compound `CCNC(=O)Cn1nc(-c2ccc(OC(F)(F)F)cc2)ccc1=O` [II-5, N-ethyl-2-(6-oxo-3-(4-(trifluoromethoxy)phenyl)pyridazin-1(6H)-yl)acetamide], the IC50 is less than 10 µM in assay [1] (Table 4B) and greater than 100 µM in assay [2] (Table 5B).
Regarding `Cc1ccc(-c2ccc(=O)n(CC(=O)NC3CCCC3)n2)cc1` [IIIc-5, N-cyclopentyl-2-(6-oxo-3-(p-tolyl)pyridazin-1(6H)-yl)acetamide], the half-inhibitory concentration (IC50) in assay [1] (Table 4C) is 10 to 100 µM; in assay [2] (Table 5C), greater than 100 µM.
With `O=C(Cn1nc(-c2ccc(OC(F)F)cc2)ccc1=O)NCC(F)F` [II-15, N-(2,2-difluoroethyl)-2-(3-(4-(difluoromethoxy)phenyl)-6-oxopyridazin-1(6H)-yl)acetamide], the concentration for half-maximal inhibition (IC50) in assay [1] (Table 4B) was 10 to 100 µM; in assay [2] (Table 5B) it was greater than 100 µM.
Take `CC(C)NC(=O)Cn1nc(-c2ccccc2)ccc1=O` [IIIc-63, N-isopropyl-2-(6-oxo-3-phenylpyridazin-1(6H)-yl)acetamide]: the IC50 in assay [1] (Table 4C) and in assay [2] (Table 5C) was greater than 100 µM throughout.
Consider `COc1ccc(-c2ccc(=O)n(CC(=O)NCc3cnoc3)n2)cc1` [IIIa-31, N-(isoxazol-4-ylmethyl)-2-(3-(4-methoxyphenyl)-6-oxopyridazin-1(6H)-yl)acetamide], for which the 50% inhibitory concentration (IC50) in assay [1] (Table 4C) and in assay [2] (Table 5C) was greater than 100 µM in each case.
For `COc1ccc(-c2ccc(=O)n(CC(=O)NCCc3ccc(OC)c(OC)c3)n2)cc1` [IIIb-51, N-(3,4-dimethoxyphenethyl)-2-(3-(4-methoxyphenyl)-6-oxopyridazin-1(6H)-yl)acetamide], the IC50 in assay [1] (Table 4C) and in assay [2] (Table 5C) was greater than 100 µM throughout.
On to `Cc1ccc(-c2ccc(=O)n(CC(=O)NC3CCCCCC3)n2)cc1` [IIIc-4, N-cycloheptyl-2-(6-oxo-3-(p-tolyl)pyridazin-1(6H)-yl)acetamide], for which the results for the 50% inhibitory concentration (IC50) in assay [1] (Table 4C) and in assay [2] (Table 5C) were 10 to 100 µM and greater than 100 µM, respectively.
As for `CC(CCNC(=O)Cn1nc(-c2ccccc2)ccc1=O)c1ccccc1` (stereo not drawn) [IIIc-53, 2-(6-oxo-3-phenylpyridazin-1(6H)-yl)-N-(3-phenylbutyl)acetamide], the IC50 is 10 to 100 µM in assay [1] (Table 4C) and greater than 100 µM in assay [2] (Table 5C).
Consider `CCNC(=O)Cn1nc(-c2ccc(CC(F)(F)F)nc2)ccc1=O` [Compound I-37, N-ethyl-2-(6-oxo-3-(6-(2,2,2-trifluoroethyl)pyridin-3-yl)pyridazin-1(6H)-yl)acetamide], for which the IC50 in assay [1] (Table 4A) is 10 to 100 µM; in assay [2] (Table 5A), greater than 100 µM.
For `Cc1ccc(-c2ccc(=O)n(CC(=O)NCCc3ccccc3)n2)cc1` [IIIc-3, 2-(6-oxo-3-(p-tolyl)pyridazin-1(6H)-yl)-N-phenethylacetamide], the IC50 in assay [1] (Table 4C) was less than 10 µM; in assay [2] (Table 5C), greater than 100 µM.
Turning to `CCNC(=O)Cn1nc(-c2ccc(OC(C)C)nc2)ccc1=O` [Compound I-27, N-ethyl-2-(3-(6-isopropoxypyridin-3-yl)-6-oxopyridazin-1(6H)-yl)acetamide], the concentration for half-maximal inhibition (IC50) in assay [1] (Table 4A) and in assay [2] (Table 5A) was greater than 100 µM in each case.
With `O=C(Cn1nc(-c2ccccc2)ccc1=O)NC1CC1` [IIIc-65, N-cyclopropyl-2-(6-oxo-3-phenylpyridazin-1(6H)-yl)acetamide], the IC50 in assay [1] (Table 4C) and in assay [2] (Table 5C) was greater than 100 µM throughout.
Turning to `CCNC(=O)Cn1nc(-c2ccc(N3CC(C)(C)C3)nc2)ccc1=O` [Compound I-18, 2-(3-(6-(3,3-dimethylazetidin-1-yl)pyridin-3-yl)-6-oxopyridazin-1(6H)-yl)-N-ethylacetamide], the half-maximal inhibitory concentration (IC50) was 10 to 100 µM in assay [1] (Table 4A) and greater than 100 µM in assay [2] (Table 5A).
Take `O=C(Cn1nc(-c2cnc(OCC(F)(F)F)nc2)ccc1=O)NC1CCC1` [Compound I-71, N-cyclobutyl-2-(6-oxo-3-(2-(2,2,2-trifluoroethoxy)pyrimidin-5-yl)pyridazin-1(6H)-yl)acetamide]: the half-inhibitory concentration (IC50) is less than 10 µM in assay [1] (Table 4A) and greater than 100 µM in assay [2] (Table 5A).
Consider `CCNC(=O)Cn1nc(-c2ccc(NC3CCOCC3)nc2)ccc1=O` [Compound I-45, N-ethyl-2-(6-oxo-3-(6-((tetrahydro-2H-pyran-4-pyran-4-yl)amino)pyridin-3-yl)pyridazin-1(6H)-yl)acetamide], for which the 50% inhibitory concentration (IC50) in assay [1] (Table 4A) and in assay [2] (Table 5A) was greater than 100 µM throughout.
